Data set [1] addresses bovine serum albumin (Bos taurus, UniProt P02769). Particulars: cited from earlier work.
Data set [2] has as its system rats expressing pathologically excessive levels of MMPs. Particulars: rat, in vivo; cited from earlier work.
Data set [3] has as its system Bacillus anthracis. The settings on record: in vivo.
Data set [4] has as its system cell and tissue culture. The settings on record: cited from earlier work.
Data set [5] relates to humans. Particulars: in vivo; cited from earlier work.

Chain of bovine serum albumin (P02769 25-607): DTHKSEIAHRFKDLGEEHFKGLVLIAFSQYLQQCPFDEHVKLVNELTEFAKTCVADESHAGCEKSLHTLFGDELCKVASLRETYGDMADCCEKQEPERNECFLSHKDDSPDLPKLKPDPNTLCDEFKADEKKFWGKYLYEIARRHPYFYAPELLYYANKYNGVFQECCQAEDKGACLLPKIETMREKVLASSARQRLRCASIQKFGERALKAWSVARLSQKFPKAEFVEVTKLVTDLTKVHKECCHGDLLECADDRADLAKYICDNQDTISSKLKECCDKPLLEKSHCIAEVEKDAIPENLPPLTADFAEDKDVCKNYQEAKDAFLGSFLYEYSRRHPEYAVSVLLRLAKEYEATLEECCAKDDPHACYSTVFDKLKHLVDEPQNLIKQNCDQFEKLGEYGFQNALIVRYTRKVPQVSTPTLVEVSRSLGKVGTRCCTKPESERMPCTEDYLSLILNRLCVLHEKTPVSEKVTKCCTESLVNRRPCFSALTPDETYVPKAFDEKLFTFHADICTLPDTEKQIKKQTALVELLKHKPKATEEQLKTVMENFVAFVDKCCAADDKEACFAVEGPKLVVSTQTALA

With `O=C(/C=C/c1ccc(O)cc1)C(C(=O)/C=C/c1ccc(O)cc1)C(=O)Nc1ccccc1` [CMC2.24], the “binding to bovine serum albumin” value in data set [1] is “bind fairly strongly”. For the same compound, the “toxicity after oral gavage” value in data set [2] was “no evidence of toxicity”. For the same compound, the “treatment of subject infected with Bacillus anthracis” value in data set [3] is recorded as “effective to treat the subject”. For the same compound, the “toxicity compared to the parent compound curcumin” value in data set [4] is given as “even less toxicity”.
In the case of `COc1cc(/C=C/C(=O)CC(=O)/C=C/c2ccc(O)c(OC)c2)ccc1O` [curcumin, reference compound], the “binding to bovine serum albumin” value in data set [1] is recorded as “bind fairly strongly”. For the same compound, the “toxicity after oral gavage” value in data set [2] is “no evidence of toxicity”. Also, the toxicity in humans result in data set [5] is on record as “virtually no toxicity”.
